In paper PMC7736828 (2020):
One block for each compound: values may come before it.

Columns and labels:
[1] = test system: 147 Lla (RNA, riboswitch) AAAAUAGAAUAAAUACUCCACCGGGAGUUAAAUCGUAUGAACGAUUGUUUGCAUUUCAGUAGGUCUGAGAAGAAAUGUAGAUAGUCGUUCUUUUUUUAGCUGAGGAGGCGAAAAUGACUUGGCUAUAUCUACUAAUAGCAGGAAUUU; assay: in vitro transcription termination assay; conditions: 1.8 mM NTPs, 37 °C; for binding: highest tested 10 mM; for EC50: E. coli RNA polymerase, 8 min, co-transcriptional, full-length fraction
[2] = test system: 95 Lla (RNA, riboswitch) GGGAAAAUAGAAUAAAUACUCCACCGGGAGUUAAAUCGUAUGAACGAUUGUUUGCAUUUCAGUAGGUCUGAGAAGAAAUGUAGAUAGUCGUUCUU; assay: in-line probing; conditions: 20 mM Mg2+, 100 mM K+, 50 mM Tris-HCl pH 8.3 (at 23 °C); for binding: highest tested 10 mM; for apparent KD: ~48 h
[3] = test system: GGAM-6 (Sru 111) (RNA, mRNA element) GGGUCAAUACUCGUAUCGGACGGCAAGCAAUCGCCUGCUUGCCAGAUAAGGUGUCCAUAGACACUGGAACGGGUUAUUCAGGCCAGAUAAGAUCGCAUUCUUAUCUGGCCU; assay: in-line probing and in vitro transcription; conditions: 20 mM Mg2+, 100 mM K+; initial experiments, data not shown; highest concentration not stated
[4] = test system: 95 Lla M2 (U67A) (RNA, riboswitch) GGGAAAAUAGAAUAAAUACUCCACCGGGAGUUAAAUCGUAUGAACGAUUGUUUGCAUUUCAGUAGGACUGAGAAGAAAUGUAGAUAGUCGUUCUU; assay: in-line probing; conditions: 20 mM Mg2+, 100 mM K+; 50 mM Tris-HCl pH 8.3 (at 23 °C); highest tested 10 mM
[5] = test system: GGAM-3 (Bub 73) (RNA, mRNA element) GGGAUCCAUCCGGGGUACCGCUCCCGCAAGUUGAUCGCGCUCGGUACAAGCGCGAAAUCAGGAGCGGUACGCC; assay: in-line probing and in vitro transcription; conditions: 20 mM Mg2+, 100 mM K+; initial experiments, data not shown; highest concentration not stated
[6] = test system: GGAM-2 (Cfi 63) (RNA, mRNA element) GGAAUGGUACGGUCGUACCAGAACCGUGCGCGGGACGGCGGACCUGACACCCGGCGCGCAGCG; assay: in-line probing and in vitro transcription; conditions: 20 mM Mg2+, 100 mM K+; initial experiments, data not shown; highest concentration not stated
[7] = test system: GGAM-2 (Cfi 80) (RNA, mRNA element) GGUCGCAGGAAUGGUACGGUCGUACCAGAACCGUGCGCGGGACGGCGGACCUGACACCCGGCGCGCAGCGGUCGCCCACC; assay: in-line probing and in vitro transcription; conditions: 20 mM Mg2+, 100 mM K+; initial experiments, data not shown; highest concentration not stated
[8] = test system: 95 Lla M4 (G62C) (RNA, riboswitch) GGGAAAAUAGAAUAAAUACUCCACCGGGAGUUAAAUCGUAUGAACGAUUGUUUGCAUUUCACUAGGUCUGAGAAGAAAUGUAGAUAGUCGUUCUU; assay: in-line probing; conditions: 20 mM Mg2+, 100 mM K+; 50 mM Tris-HCl pH 8.3 (at 23 °C); up to 10 mM; folding differs from wt
[9] = test system: GGAM-4 (Msu 98) (RNA, mRNA element) GGGCGACAGCCUCUCCUCGCGAAACUAAGGUCCGCCCGCUAGGCCGGCCGCGCCUCGACGCGCCGGCUCUCGUCAAUCGAACACGCGCGGUACCCAUG; assay: in-line probing and in vitro transcription; conditions: 20 mM Mg2+, 100 mM K+; initial experiments, data not shown; highest concentration not stated
[10] = test system: 92 Rti (RNA, riboswitch) GGGACAAUUGAAGCAUCUGCCGCCGGGUAGACCAAGAACAAAGCAUGUGCGCCCCUAUCGUUAGGCCAUAGAAGAUAGGGGAAAGCGCAUGC; assay: in-line probing; conditions: 20 mM Mg2+, 100 mM K+, 50 mM Tris-HCl pH 8.3 (at 23 °C), ~48 h
[11] = test system: GGAM-5 (Nov 77) (RNA, mRNA element) GGGUGGAUGCGCCGAGAAUAGAGUAGCAGGGUGGUGUCUCCUGCGCCCGUAAGGGUUCUUCCCAGCCACGGCGUCAA; assay: in-line probing and in vitro transcription; conditions: 20 mM Mg2+, 100 mM K+; initial experiments, data not shown; highest concentration not stated
[12] = test system: GGAM-3 (Bub 59) (RNA, mRNA element) GGGAUCCAUCCGGGGUACCGCUCCCGCAAGUUGAUCGCGCUCGGUACAAGCGCGAAAUC; assay: in-line probing and in vitro transcription; conditions: 20 mM Mg2+, 100 mM K+; initial experiments, data not shown; highest concentration not stated
[13] = test system: 95 Lla M3 (G72C) (RNA, riboswitch) GGGAAAAUAGAAUAAAUACUCCACCGGGAGUUAAAUCGUAUGAACGAUUGUUUGCAUUUCAGUAGGUCUGACAAGAAAUGUAGAUAGUCGUUCUU; assay: in-line probing; conditions: 20 mM Mg2+, 100 mM K+; 50 mM Tris-HCl pH 8.3 (at 23 °C); highest tested 10 mM
[14] = test system: GGAM-4 (Msu 80) (RNA, mRNA element) GGGAAACUAAGGUCCGCCCGCUAGGCCGGCCGCGCCUCGACGCGCCGGCUCUCGUCAAUCGAACACGCGCGGUACCCAUG; assay: in-line probing and in vitro transcription; conditions: 20 mM Mg2+, 100 mM K+; initial experiments, data not shown; highest concentration not stated
[15] = test system: 95 Lla M1 (G66C) (RNA, riboswitch) GGGAAAAUAGAAUAAAUACUCCACCGGGAGUUAAAUCGUAUGAACGAUUGUUUGCAUUUCAGUAGCUCUGAGAAGAAAUGUAGAUAGUCGUUCUU; assay: in-line probing; conditions: 20 mM Mg2+, 100 mM K+; 50 mM Tris-HCl pH 8.3 (at 23 °C); highest tested 10 mM

SMILES: N=C(N)N
- binding [3]: no
- EC50 [1]: 260 ± 30 µM
- apparent KD [2]: 210 ± 20 µM
- binding [4]: no
- binding [5]: no
- binding [6]: no
- binding [7]: no
- binding [8]: weak
- binding [9]: no
- apparent KD [10]: 190 ± 30 µM
- binding [11]: no
- binding [12]: no
- binding [13]: no
- binding [14]: no
- binding [15]: no

SMILES: NC(N)=O
- binding [1]: no
- binding [2]: no

Further lines, results first:

- binding [1]: no
- binding [2]: no
SMILES: N=C(N)NCCC[C@H](N)C(=O)O

- EC50 [1]: 2700 ± 700 µM
- apparent KD ([2]; Figure 5 legend prints ±0.6): 4100 ± 500 µM
SMILES: CNC(=N)N

- EC50 [1]: 3800 ± 500 µM
- apparent KD [2]: 7500 ± 800 µM
SMILES: N=C(N)NN
